Test results taken from ChEMBL document CHEMBL1909046, “DrugMatrix in vitro pharmacology data”.

Assays:
[1] = molecular target: T1, Type-2 angiotensin II receptor (Homo sapiens, UniProt P50052); type: cell-based; conditions: cho-k1; note: in other assays of this panel Not Active means under 50% inhibition at 10 µM
T1 sequence (P50052 whole entry): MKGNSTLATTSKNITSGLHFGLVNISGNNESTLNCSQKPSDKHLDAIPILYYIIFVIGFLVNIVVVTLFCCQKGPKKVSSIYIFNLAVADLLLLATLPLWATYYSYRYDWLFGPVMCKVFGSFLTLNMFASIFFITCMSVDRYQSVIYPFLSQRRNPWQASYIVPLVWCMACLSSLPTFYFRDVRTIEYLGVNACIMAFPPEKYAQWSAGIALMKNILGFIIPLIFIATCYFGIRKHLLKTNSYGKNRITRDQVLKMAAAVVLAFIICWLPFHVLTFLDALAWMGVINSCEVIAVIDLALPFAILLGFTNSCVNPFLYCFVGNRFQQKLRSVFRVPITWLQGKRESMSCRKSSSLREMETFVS

[2] = DRUGMATRIX: Phosphodiesterase PDE3 enzyme inhibition (substrate: [3H]cAMP + cAMP); type: tissue-based, Homo sapiens; conditions: platelet; Not Active = under 50% inhibition at 10 µM
Neutrophil elastase = molecular target: T2, Neutrophil elastase (Homo sapiens, UniProt P08246); type: tissue-based;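 note: inhibition of neutrophil elastase enzyme activity, measured with a p-nitroanilide-linked peptide substrate; in other assays of this panel Not Active means under 50% inhibition at 10 µM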
T2 sequence (P08246 whole entry): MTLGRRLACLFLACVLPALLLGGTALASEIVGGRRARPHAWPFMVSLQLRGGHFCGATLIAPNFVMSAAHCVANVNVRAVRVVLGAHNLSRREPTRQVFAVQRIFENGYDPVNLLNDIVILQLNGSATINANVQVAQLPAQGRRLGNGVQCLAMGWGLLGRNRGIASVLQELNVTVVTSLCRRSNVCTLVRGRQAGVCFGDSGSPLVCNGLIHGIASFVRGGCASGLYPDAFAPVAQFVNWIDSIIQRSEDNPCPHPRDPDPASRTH

[3] = molecular target: T3, Alpha-2C adrenergic receptor (Homo sapiens, UniProt P18825); test: DRUGMATRIX: Adrenergic Alpha-2C radioligand binding (ligand: [3H] MK-912); type: cell membranes, Sf9, Membrane
T3 sequence (P18825 whole entry): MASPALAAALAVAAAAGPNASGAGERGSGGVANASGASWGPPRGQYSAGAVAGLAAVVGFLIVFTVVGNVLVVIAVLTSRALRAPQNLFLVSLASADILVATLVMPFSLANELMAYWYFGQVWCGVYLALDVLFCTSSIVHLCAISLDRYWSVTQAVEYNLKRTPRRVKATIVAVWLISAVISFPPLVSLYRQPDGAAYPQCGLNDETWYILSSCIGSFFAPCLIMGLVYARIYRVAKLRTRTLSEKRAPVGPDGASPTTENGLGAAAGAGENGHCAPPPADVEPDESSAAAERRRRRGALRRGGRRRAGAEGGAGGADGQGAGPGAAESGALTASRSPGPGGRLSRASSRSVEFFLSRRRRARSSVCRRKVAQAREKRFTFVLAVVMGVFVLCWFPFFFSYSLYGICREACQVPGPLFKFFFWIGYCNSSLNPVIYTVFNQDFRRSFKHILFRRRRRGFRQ

[4] = DRUGMATRIX: Atrial Natriuretic Factor (ANF) radioligand binding (ligand: [125I] ANF (rat)); type: cell membranes, Cavia porcellus, Dunkin-Hartley, Adrenal gland, Membrane; conditions: Not Active = under 50% inhibition at 10 µM
Cytochrome P450 1A2 = molecular target: T4, Cytochrome P450 1A2 (Homo sapiens, UniProt P05177); conditions: bti-tn-5b1-4; note: in other assays of this panel Not Active means under 50% inhibition at 10 µM
T4 sequence (P05177 whole entry): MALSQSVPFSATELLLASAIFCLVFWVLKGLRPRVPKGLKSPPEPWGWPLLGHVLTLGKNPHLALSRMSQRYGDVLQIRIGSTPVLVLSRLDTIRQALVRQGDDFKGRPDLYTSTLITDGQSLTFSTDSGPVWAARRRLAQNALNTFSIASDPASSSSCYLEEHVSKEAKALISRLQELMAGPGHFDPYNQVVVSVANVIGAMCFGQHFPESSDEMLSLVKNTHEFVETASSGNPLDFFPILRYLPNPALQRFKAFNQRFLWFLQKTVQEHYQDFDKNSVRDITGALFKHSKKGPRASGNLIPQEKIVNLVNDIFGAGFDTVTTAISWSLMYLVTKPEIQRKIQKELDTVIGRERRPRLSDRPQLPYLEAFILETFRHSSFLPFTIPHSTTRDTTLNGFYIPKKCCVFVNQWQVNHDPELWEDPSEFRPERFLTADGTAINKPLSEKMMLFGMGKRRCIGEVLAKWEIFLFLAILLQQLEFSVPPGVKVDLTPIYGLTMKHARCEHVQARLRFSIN

[5] = DRUGMATRIX: GABAA, Chloride Channel, TBOB radioligand binding (ligand: [3H] TBOB); type: cell membranes, Rattus norvegicus, Wistar, Cerebral cortex, Membrane; conditions: Not Active = under 50% inhibition at 10 µM
[6] = molecular target: T5, 3-hydroxy-3-methylglutaryl-coenzyme A reductase (Homo sapiens, UniProt P04035); design: species or system Escherichia coli;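 note: enzyme inhibition assay of HMG-CoA reductase using radiolabeled [14C]HMG-CoA as substrate; in other assays of this panel Not Active means under 50% inhibition at 10 µM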
T5 sequence (P04035 whole entry): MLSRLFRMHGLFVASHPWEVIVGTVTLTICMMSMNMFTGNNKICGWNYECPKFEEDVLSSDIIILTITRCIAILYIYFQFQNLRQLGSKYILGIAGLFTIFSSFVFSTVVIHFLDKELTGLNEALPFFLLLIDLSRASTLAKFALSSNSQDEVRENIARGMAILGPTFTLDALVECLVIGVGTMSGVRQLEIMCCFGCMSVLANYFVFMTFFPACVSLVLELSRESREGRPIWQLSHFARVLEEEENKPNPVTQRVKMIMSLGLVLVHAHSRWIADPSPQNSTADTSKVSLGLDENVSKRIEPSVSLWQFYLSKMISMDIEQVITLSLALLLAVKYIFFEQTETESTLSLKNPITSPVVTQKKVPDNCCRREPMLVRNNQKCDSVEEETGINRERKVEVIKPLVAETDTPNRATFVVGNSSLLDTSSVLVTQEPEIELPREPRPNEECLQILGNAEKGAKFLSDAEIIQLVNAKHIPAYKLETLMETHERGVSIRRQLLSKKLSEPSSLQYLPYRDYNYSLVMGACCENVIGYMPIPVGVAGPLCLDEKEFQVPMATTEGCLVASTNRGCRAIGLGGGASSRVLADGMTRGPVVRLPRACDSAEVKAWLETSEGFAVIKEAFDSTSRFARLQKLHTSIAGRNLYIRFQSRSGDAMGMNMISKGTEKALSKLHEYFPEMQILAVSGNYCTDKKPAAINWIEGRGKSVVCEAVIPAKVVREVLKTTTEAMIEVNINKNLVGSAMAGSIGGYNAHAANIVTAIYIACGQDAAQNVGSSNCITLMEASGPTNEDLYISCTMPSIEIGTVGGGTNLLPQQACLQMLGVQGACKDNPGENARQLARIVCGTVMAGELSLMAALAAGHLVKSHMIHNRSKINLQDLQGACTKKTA

Cytochrome P450 2C19 = Cytochrome P450 2C19 (Homo sapiens, UniProt P33261); conditions: bti-tn-5b1-4; note: in other assays of this panel Not Active means under 50% inhibition at 10 µM
Chain of Cytochrome P450 2C19 (P33261 whole entry): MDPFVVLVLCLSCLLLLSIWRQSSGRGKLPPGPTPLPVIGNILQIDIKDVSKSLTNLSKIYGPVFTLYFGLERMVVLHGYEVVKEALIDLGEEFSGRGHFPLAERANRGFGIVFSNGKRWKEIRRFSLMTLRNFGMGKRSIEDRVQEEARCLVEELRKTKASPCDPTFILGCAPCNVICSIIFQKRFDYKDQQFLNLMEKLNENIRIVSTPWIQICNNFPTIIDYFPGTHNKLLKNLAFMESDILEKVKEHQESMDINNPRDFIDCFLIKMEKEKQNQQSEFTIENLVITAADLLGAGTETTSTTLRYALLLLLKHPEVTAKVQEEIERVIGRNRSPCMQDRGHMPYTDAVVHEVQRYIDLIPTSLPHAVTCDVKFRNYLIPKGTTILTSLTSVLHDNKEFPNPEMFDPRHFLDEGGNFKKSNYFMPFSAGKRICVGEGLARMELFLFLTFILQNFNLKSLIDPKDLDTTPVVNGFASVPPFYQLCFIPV

Row | Structure (SMILES) | IC50 [1] | IC50 [2] | Ki [2] | IC50 (Neutrophil elastase) | IC50 ([3]; sf9) | IC50 [4] | Ki [4] | IC50 (Cytochrome P450 1A2) | Ki (Cytochrome P450 1A2) | IC50 [5] | Ki [5] | IC50 [6] | IC50 (Cytochrome P450 2C19) | Ki (Cytochrome P450 2C19) | IC50 ([3]; read-out: IC50) [nM] | Ki ([3]; read-out: Ki) [nM]
1 | CC(=O)[C@@]1(O)CC[C@H]2[C@@H]3C[C@H](C)C4=CC(=O)CC[C@]4(C)[C@H]3CC[C@@]21C | Not Active | Not Active | Not Active | Not Active | Not Active | Not Active | Not Active | Not Active | Not Active | Not Active | Not Active | Not Active | – | – | – | –
2 | N[C@@H](Cc1ccc(N(CCCl)CCCl)cc1)C(=O)O | Not Active | Not Active | Not Active | Not Active | Not Active | Not Active | Not Active | Not Active | Not Active | Not Active | Not Active | Not Active | Not Active | Not Active | – | –
3 | CCCCc1oc2ccccc2c1C(=O)c1cc(I)c(OCCN(CC)CC)c(I)c1 [AMIODARONE] | Not Active | – | – | Not Active | Not Active | – | – | – | – | – | – | Not Active | – | – | – | –
4 | OCCN(CCO)c1nc(N2CCCCC2)c2nc(N(CCO)CCO)nc(N3CCCCC3)c2n1 [DIPYRIDAMOLE] | Not Active | Not Active | Not Active | Not Active | Not Active | Not Active | Not Active | – | – | Not Active | Not Active | Not Active | Not Active | Not Active | – | –
5 | Cc1oncc1C(=O)Nc1ccc(C(F)(F)F)cc1 [LEFLUNOMIDE] | Not Active | Not Active | Not Active | Not Active | Not Active | Not Active | Not Active | – | – | Not Active | Not Active | Not Active | Not Active | Not Active | – | –
6 | N[C@@H](Cc1cc(I)c(Oc2ccc(O)c(I)c2)c(I)c1)C(=O)O [LIOTHYRONINE] | Not Active | – | – | Not Active | Not Active | – | – | – | – | – | – | Not Active | Not Active | Not Active | – | –
7 | CCOC(=O)N1CCC(=C2c3ccc(Cl)cc3CCc3cccnc32)CC1 [LORATADINE] | Not Active | Not Active | Not Active | Not Active | Not Active | Not Active | Not Active | – | – | Not Active | Not Active | Not Active | – | – | – | –
8 | Cn1ccnc1S [METHIMAZOLE] | Not Active | Not Active | Not Active | Not Active | Not Active | Not Active | Not Active | – | – | Not Active | Not Active | Not Active | Not Active | Not Active | – | –
9 | CC[C@@H](CO)NC(=O)[C@@H]1C=C2c3cccc4[nH]cc(c34)C[C@H]2N(C)C1 [METHYLERGONOVINE] | Not Active | Not Active | Not Active | Not Active | Not Active | Not Active | Not Active | Not Active | Not Active | Not Active | Not Active | Not Active | – | – | – | –
10 | CN1CCN(CCCN2c3ccccc3Sc3ccc(Cl)cc32)CC1 [PROCHLORPERAZINE] | Not Active | – | – | Not Active | – | – | – | – | – | – | – | Not Active | Not Active | Not Active | – | –
11 | Nc1nc2ccc(OC(F)(F)F)cc2s1 [RILUZOLE] | Not Active | Not Active | Not Active | Not Active | Not Active | Not Active | Not Active | – | – | Not Active | Not Active | Not Active | – | – | – | –
12 | Cc1nc2n(c(=O)c1CCN1CCC(c3noc4cc(F)ccc34)CC1)CCCC2 [RISPERIDONE] | Not Active | – | – | Not Active | – | – | – | Not Active | Not Active | – | – | Not Active | Not Active | Not Active | – | –
13 | CSc1ccc(/C=C2/C(C)=C(CC(=O)O)c3cc(F)ccc32)cc1 [SULINDAC SULFIDE] | Not Active | Not Active | Not Active | Not Active | Not Active | Not Active | Not Active | – | – | Not Active | Not Active | Not Active | Not Active | Not Active | – | –
14 | CC/C(=C(\c1ccccc1)c1ccc(OCCN(C)C)cc1)c1ccccc1 [TAMOXIFEN] | Not Active | – | – | Not Active | Not Active | – | – | Not Active | Not Active | – | – | Not Active | Not Active | Not Active | – | –
15 | CC(C)N1CCN(c2ccc(OCC3COC(Cn4cncn4)(c4ccc(Cl)cc4Cl)O3)cc2)CC1 (stereo unspecified) [TERCONAZOLE] | Not Active | Not Active | Not Active | Not Active | – | – | – | Not Active | Not Active | Not Active | Not Active | Not Active | Not Active | Not Active | 418 | 61
16 | Cc1cccc(N(C)C(=S)Oc2ccc3ccccc3c2)c1 [TOLNAFTATE] | Not Active | Not Active | Not Active | Not Active | Not Active | Not Active | Not Active | Not Active | Not Active | Not Active | Not Active | Not Active | – | – | – | –
